BindingDB's records for doi:10.7270/Q2VX0FC0 (D3R/Abbott, 2016)

Columns and labels:
[1] = molecular target: T1, Heat shock protein HSP 90-beta (Homo sapiens, UniProt P08238); assay: Thermofluor Assay
Text: Thermofluor Assay

[2] = molecular target: T1, Heat shock protein HSP 90-beta; assay: ITC
Text: ITC

T1 sequence (P08238 whole entry): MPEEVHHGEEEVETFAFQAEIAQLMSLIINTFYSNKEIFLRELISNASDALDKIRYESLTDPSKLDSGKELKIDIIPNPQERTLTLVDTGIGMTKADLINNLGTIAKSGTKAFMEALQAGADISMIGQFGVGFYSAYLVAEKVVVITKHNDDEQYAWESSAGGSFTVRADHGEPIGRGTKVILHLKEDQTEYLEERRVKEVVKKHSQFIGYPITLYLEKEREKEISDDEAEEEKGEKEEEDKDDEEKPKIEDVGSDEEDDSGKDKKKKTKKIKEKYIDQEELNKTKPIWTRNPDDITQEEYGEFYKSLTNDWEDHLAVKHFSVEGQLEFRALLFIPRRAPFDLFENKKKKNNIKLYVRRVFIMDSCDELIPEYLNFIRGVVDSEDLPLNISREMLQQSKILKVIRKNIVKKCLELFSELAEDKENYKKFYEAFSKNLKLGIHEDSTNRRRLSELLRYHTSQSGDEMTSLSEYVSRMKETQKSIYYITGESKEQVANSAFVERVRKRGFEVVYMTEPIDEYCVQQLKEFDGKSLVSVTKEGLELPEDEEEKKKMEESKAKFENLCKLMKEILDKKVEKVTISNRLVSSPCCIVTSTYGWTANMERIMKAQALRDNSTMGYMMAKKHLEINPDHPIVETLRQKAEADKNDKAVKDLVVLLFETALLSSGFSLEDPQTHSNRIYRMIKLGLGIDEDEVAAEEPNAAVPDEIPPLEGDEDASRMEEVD

Structure (SMILES)	Kd [1] [µM]	Kd [2] [µM]
O=C(c1ccc(O)cc1O)c1ccc(O)c(O)c1O [Polyhydroxy benzophenone, 8]	> 100	
O=C(c1cccc(O)c1)c1ccc(O)cc1O [Polyhydroxy benzophenone, 12]	28.9	11.5
O=c1[nH]c2ccccc2n1-c1cc(-c2ccccc2O)c(O)cc1O [hsp90_10]	4.58	6.58
CCCc1cc(-n2c(=O)[nH]c3ccccc32)c(O)cc1O [hsp90_12]	0.123	0.0686
COC(=O)c1cc(-n2c(=O)[nH]c3cc(C(F)(F)F)cc(Cl)c32)c(O)cc1OC [hsp90_13]	> 100	
O=c1[nH]c2ccccc2n1-c1cc(-c2ccnc3ccccc23)c(O)cc1O [hsp90_23]		3.06
COc1cc(-c2cc(-n3c(=O)[nH]c4ccccc43)c(O)cc2O)cc(OC)c1OC [hsp90_24]	0.993	10.3
O=c1[nH]c2ccccc2n1-c1cc(-c2cccnc2O)c(O)cc1O [hsp90_34]	94.8	54
CC1c2cc(-n3c(=O)[nH]c4ccccc43)c(O)cc2OC1(C)C (centres undefined) [hsp90_35]	> 100	
CC(C)c1ccc(S(=O)(=O)NCc2ccc3c(c2)[nH]c(=O)n3-c2cc(Cl)c(O)cc2O)cc1 [hsp90_38]	0.225	0.115
CCc1cc(-n2c(=O)[nH]c3ccccc32)c(O)cc1O [hsp90_40]	0.165	0.069
O=c1[nH]c2cc(CNS(=O)(=O)c3ccccc3O)ccc2n1-c1cc(Cl)c(O)cc1O [hsp90_43]	0.172	0.0107
O=c1[nH]c2cc(CNS(=O)(=O)c3cccnc3)ccc2n1-c1cc(Cl)c(O)cc1O [hsp90_44]	0.376	0.0268
COc1cccc(OC)c1-c1cc(C)nc(N)n1 [hsp90_70]	2.28	1.48
Cc1cc(-c2ccc([N+](=O)[O-])cc2Cl)nc(N)n1 [hsp90_73]	4.53	0.393
Nc1nc(-c2ccc(C(F)(F)F)cc2Cl)cc(-c2ccc(C(F)(F)F)cc2Cl)n1 [hsp90_77]	> 100	
COc1ccc(-c2cc(-c3ccc(Cl)cc3Cl)nc(N)n2)c(OC)c1 [hsp90_84]	265	
Nc1nc(Cl)c(/C=N/O)c(-c2ccc(Cl)cc2Cl)n1 [hsp90_87]	2.25	

Results, then the molecule that gave them:

Kd [1] [µM]	Kd [2] [µM]	Structure (SMILES)
11.2		CCOC(=O)CO/N=C/c1c(Cl)nc(N)nc1-c1ccc(Cl)cc1Cl [hsp90_91]
91	64	Cc1cc(-n2nc(C(=O)NCC3COC(C)(C)O3)cc2C)nc(N)n1 (centres undefined) [hsp90_95]
> 100		Cc1cc(CNC(=O)N2CCN(S(C)(=O)=O)C2=O)nc(N)n1 [hsp90_120]
> 100		Cn1c2c([n+](C)c1CCl)C(=O)c1ccccc1C2=O [hsp90_128]
> 100		CCCC(=O)c1cc(O)c(O)c(O)c1 [hsp90_151]
7.51	8.33	O=C(c1ccc(O)cc1)c1cc(Cl)ccc1O [hsp90_164]
> 100		CC(=O)Oc1ccc([N+](=O)[O-])c2ccccc12 [hsp90_165]
> 100		O=C(CCl)NCc1cc(C(=O)c2ccc(OCCO)c(Cl)c2Cl)cc(Cl)c1O [hsp90_171]
> 100		CC(=O)Oc1ccc2c(=O)c(Cc3ccccc3)c(C)oc2c1OC(C)=O [hsp90_174]
10.6	3.11	O=C(c1ccc(O)cc1)c1ccc(O)cc1O [hsp90_176]
20.4	7.45	Nc1nc(N)nc(-c2ccccc2Cl)n1 [hsp90_179]
